Species on record: Rattus norvegicus
Test: DrugMatrix - Regimen: Daily Repeat
Type: toxicity, organism-based, Sprague-Dawley
Parameters: regimen Daily Repeat, gender Male, age 6-8 weeks
Settings: in vivo, po, route oral GAVAGE, vehicle .5 % CMC; for ABSOLUTE BASOPHIL / ABSOLUTE EOSINOPHIL / ABSOLUTE LYMPHOCYTE / ABSOLUTE MONOCYTE / ABSOLUTE SEGMENTED NEUTROPHIL / BASOPHIL / EOSINOPHIL / ERYTHROCYTE COUNT / HEMATOCRIT / HEMOGLOBIN / LEUKOCYTE COUNT / LYMPHOCYTE / MEAN CORPUSCULAR HEMOGLOBIN / MEAN CORPUSCULAR HEMOGLOBIN CONCENTRATION / MEAN CORPUSCULAR VOLUME / MONOCYTE / NEUTROPHIL / NUCLEATED RED BLOOD CELLS / PLATELET COUNT: tissue Blood; for ALANINE AMINOTRANSFERASE / ALBUMIN / ALKALINE PHOSPHATASE / ASPARTATE AMINOTRANSFERASE / BLOOD UREA NITROGEN / CARBON DIOXIDE / CHLORIDE / CHOLESTEROL / CREATINE PHOSPHOKINASE / CREATININE / GLUCOSE / LACTATE DEHYDROGENASE / LIPASE / PHOSPHORUS / POTASSIUM / SODIUM / TOTAL BILIRUBIN / TOTAL PROTEIN / URIC ACID: tissue Plasma
[1] = 0 mg/kg, 72 h, dose level Control, time 3 day
[2] = 0 mg/kg, 120 h, dose level Control, time 5 day
[3] = 100 mg/kg, 72 h, dose level Low, time 3 day

SMILES: COC1=C(OC)C(=O)C(CCCCCCCCCCO)=C(C)C1=O [IDEBENONE]
- ABSOLUTE BASOPHIL [1]: 0 CELLS/uL
- ABSOLUTE EOSINOPHIL [1]: 0 CELLS/uL
- ABSOLUTE LYMPHOCYTE [1]: 12191.17 CELLS/uL
- ABSOLUTE MONOCYTE [1]: 183.17 CELLS/uL
- ABSOLUTE SEGMENTED NEUTROPHIL [1]: 1192.33 CELLS/uL
- BASOPHIL [1]: 0%
- EOSINOPHIL [1]: 0%
- ERYTHROCYTE COUNT [1]: 5.51 x10E6/uL
- HEMATOCRIT [1]: 35.45%
- HEMOGLOBIN [1]: 13.82 G/DL
- LEUKOCYTE COUNT [1]: 13.57 x10E3/uL
- LYMPHOCYTE [1]: 89.83%
- MEAN CORPUSCULAR HEMOGLOBIN [1]: 25.1 pg
- MEAN CORPUSCULAR HEMOGLOBIN CONCENTRATION [1]: 38.98 G/DL
- MEAN CORPUSCULAR VOLUME [1]: 64.42 fL
- MONOCYTE [1]: 1.33%
- NEUTROPHIL [1]: 8.83%
- NUCLEATED RED BLOOD CELLS [1]: 0 /100WBC
- PLATELET COUNT [1]: 1118.17 x10E3/uL
- ALANINE AMINOTRANSFERASE [1]: 55 u/L
- ALBUMIN [1]: 4.15 G/DL
- ALKALINE PHOSPHATASE [1]: 449.5 u/L
- ASPARTATE AMINOTRANSFERASE [1]: 112.83 u/L
- BLOOD UREA NITROGEN [1]: 17.33 mg/dL
- CARBON DIOXIDE [1]: 29.5 mmol/L
- CHLORIDE [1]: 101 MEQ/L
- CHOLESTEROL [1]: 70 mg/dL
- CREATINE PHOSPHOKINASE [1]: 1325.83 u/L
- CREATININE [1]: 0.18 mg/dL
- GLUCOSE [1]: 171.5 mg/dL
- LACTATE DEHYDROGENASE [1]: 386 u/L
- LIPASE [1]: 10 u/L
- PHOSPHORUS [1]: 11.57 mg/dL
- POTASSIUM [1]: 6.21 MEQ/L
- SODIUM [1]: 141.65 MEQ/L
- TOTAL BILIRUBIN [1]: 0.15 mg/dL
- TOTAL PROTEIN [1]: 5.75 G/DL
- URIC ACID [1]: 1.28 mg/dL
- ABSOLUTE BASOPHIL [2]: 0 CELLS/uL
- ABSOLUTE EOSINOPHIL [2]: 138.17 CELLS/uL
- ABSOLUTE LYMPHOCYTE [2]: 13283.17 CELLS/uL
- ABSOLUTE MONOCYTE [2]: 303.83 CELLS/uL
- ABSOLUTE SEGMENTED NEUTROPHIL [2]: 1308.17 CELLS/uL
- BASOPHIL [2]: 0%
- EOSINOPHIL [2]: 1%
- ERYTHROCYTE COUNT [2]: 5.32 x10E6/uL
- HEMATOCRIT [2]: 33.8%
- HEMOGLOBIN [2]: 13.63 G/DL
- LEUKOCYTE COUNT [2]: 15.03 x10E3/uL
- LYMPHOCYTE [2]: 88.33%
- MEAN CORPUSCULAR HEMOGLOBIN [2]: 25.68 pg
- MEAN CORPUSCULAR HEMOGLOBIN CONCENTRATION [2]: 40.35 G/DL
- MEAN CORPUSCULAR VOLUME [2]: 63.67 fL
- MONOCYTE [2]: 1.83%
- NEUTROPHIL [2]: 8.83%
- NUCLEATED RED BLOOD CELLS [2]: 0 /100WBC
- PLATELET COUNT [2]: 1097.5 x10E3/uL
- ALANINE AMINOTRANSFERASE [2]: 54.5 u/L
- ALBUMIN [2]: 4.27 G/DL
- ALKALINE PHOSPHATASE [2]: 337 u/L
- ASPARTATE AMINOTRANSFERASE [2]: 94.67 u/L
- BLOOD UREA NITROGEN [2]: 17 mg/dL
- CARBON DIOXIDE [2]: 28.33 mmol/L
- CHLORIDE [2]: 101.5 MEQ/L
- CHOLESTEROL [2]: 71.33 mg/dL
- CREATINE PHOSPHOKINASE [2]: 628.17 u/L
- CREATININE [2]: 0.19 mg/dL
- GLUCOSE [2]: 177.83 mg/dL
- LACTATE DEHYDROGENASE [2]: 500.5 u/L
- LIPASE [2]: 9.5 u/L
- PHOSPHORUS [2]: 12.3 mg/dL
- POTASSIUM [2]: 5.63 MEQ/L
- SODIUM [2]: 143.03 MEQ/L
- TOTAL BILIRUBIN [2]: 0.2 mg/dL
- TOTAL PROTEIN [2]: 6.02 G/DL
- URIC ACID [2]: 1.5 mg/dL
- ABSOLUTE BASOPHIL [3]: 0 CELLS/uL
- ABSOLUTE EOSINOPHIL [3]: 86.67 CELLS/uL
- ABSOLUTE LYMPHOCYTE [3]: 16240.33 CELLS/uL
- ABSOLUTE MONOCYTE [3]: 104 CELLS/uL
- ABSOLUTE SEGMENTED NEUTROPHIL [3]: 1602.33 CELLS/uL
- BASOPHIL [3]: 0%
- EOSINOPHIL [3]: 0.67%
- ERYTHROCYTE COUNT [3]: 5.22 x10E6/uL
- HEMATOCRIT [3]: 32.37%
- HEMOGLOBIN [3]: 13.17 G/DL
- LEUKOCYTE COUNT [3]: 18.03 x10E3/uL
- LYMPHOCYTE [3]: 90.33%
- MEAN CORPUSCULAR HEMOGLOBIN [3]: 25.27 pg
- MEAN CORPUSCULAR HEMOGLOBIN CONCENTRATION [3]: 40.67 G/DL
- MEAN CORPUSCULAR VOLUME [3]: 62.07 fL
- MONOCYTE [3]: 0.67%
- NEUTROPHIL [3]: 8.33%
- NUCLEATED RED BLOOD CELLS [3]: 0 /100WBC
- PLATELET COUNT [3]: 1354 x10E3/uL
- ALANINE AMINOTRANSFERASE [3]: 57.67 u/L
- ALBUMIN [3]: 3.97 G/DL
- ALKALINE PHOSPHATASE [3]: 401 u/L
- ASPARTATE AMINOTRANSFERASE [3]: 105.67 u/L
- BLOOD UREA NITROGEN [3]: 17.67 mg/dL
- CARBON DIOXIDE [3]: 26.33 mmol/L
- CHLORIDE [3]: 101 MEQ/L
- CHOLESTEROL [3]: 67 mg/dL
- CREATINE PHOSPHOKINASE [3]: 961.67 u/L
- CREATININE [3]: 0.19 mg/dL
- GLUCOSE [3]: 227 mg/dL
- LACTATE DEHYDROGENASE [3]: 252 u/L
- LIPASE [3]: 9.67 u/L
- PHOSPHORUS [3]: 13.13 mg/dL
- POTASSIUM [3]: 6.02 MEQ/L
- SODIUM [3]: 142.43 MEQ/L
- TOTAL BILIRUBIN [3]: 0.2 mg/dL
- TOTAL PROTEIN [3]: 5.47 G/DL
- URIC ACID [3]: 1.67 mg/dL

— ChEMBL document CHEMBL3885881, “DrugMatrix”
